According to ChEMBL document CHEMBL1201862, “PubChem BioAssay data set” (2004):
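Each compound was tested at five concentrations against cells in 96-well plates for 48 hours. GI50: concentration for 50% inhibition of growth.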 The source made the active and inactive calls. Cut-off read from the data, not from the text of the source: active = GI50 up to about 1.1 µM and inactive = higher.

Assays:
Assay in all cases: inhibition of tumour cell growth, NCI panel, 48 h
[1] = tested on: A498
[2] = tested on: ACHN
[3] = tested on: CAKI-1
[4] = tested on: COLO 205
[5] = tested on: DU-145
[6] = tested on: HCT-116
[7] = tested on: Hs-578T
[8] = tested on: IGROV-1
[9] = tested on: K562
[10] = tested on: MDA-MB-231
[11] = tested on: Malme-3M
[12] = tested on: NCI-H23
[13] = tested on: NCI-H460
[14] = tested on: NCI/ADR-RES
[15] = tested on: OVCAR-5
[16] = tested on: PC-3
[17] = tested on: SF-268
[18] = tested on: SK-MEL-5
[19] = tested on: T47D

Measured: GI50

Oc1ccccc1/C=N/N1C(=S)N(c2ccccc2)C(=N\c2ccccc2)/C1=N/c1ccccc1
inactive: [1] 5.33 µM | [2] 2.41 µM | [3] 12.4 µM | [4] 3.27 µM | [5] 16.9 µM | [6] 11.6 µM | [7] 4.53 µM | [8] 14 µM | [9] 28.6 µM | [10] 10 µM | [11] 22.4 µM | [12] 11.1 µM | [13] 12.4 µM | [14] 13.6 µM | [15] 34 µM | [16] 16.9 µM | [17] 12.1 µM | [18] 18.2 µM | [19] 15.9 µM

CC(C)NC(=O)OCc1c(COC(=O)NC(C)C)c(-c2cc[n+](COC(=O)C(C)C)cc2)n2c1CCC2
inactive: [1] 13.9 µM | [2] 12.2 µM | [3] 20 µM | [4] > 100 µM | [5] > 100 µM | [6] > 100 µM | [7] > 100 µM | [8] 30.1 µM | [9] > 100 µM | [10] > 100 µM | [11] > 100 µM | [12] > 90.4 µM | [13] 41.6 µM | [14] > 100 µM | [15] > 100 µM | [16] > 59.6 µM | [17] > 74.8 µM | [18] > 100 µM | [19] > 94.8 µM

O=c1[nH]nc(-c2ccccc2)n1/N=C/c1ccc([N+](=O)[O-])cc1
inactive: [1] 14.6 µM | [2] 11.4 µM | [3] 12.3 µM | [4] > 100 µM | [5] 56.1 µM | [6] 25 µM | [7] 17 µM | [8] > 58.7 µM | [9] > 100 µM | [10] > 33.2 µM | [11] > 100 µM | [12] > 53.2 µM | [13] 22.9 µM | [14] 20.1 µM | [15] > 100 µM | [16] > 100 µM | [17] 13 µM | [18] > 100 µM | [19] 13.8 µM

CC(=O)O[C@H]1CC[C@@]2(C)C(=CC[C@@H]3[C@@H]2CC[C@]2(C)C(=N/O)/C(=C\c4ccccc4)C[C@@H]32)C1
inactive: [1] 13.4 µM | [2] 23.6 µM | [3] 24.7 µM | [4] 10.6 µM | [5] 23.4 µM | [6] 6.12 µM | [7] 22.5 µM | [8] 44.2 µM | [9] 31.2 µM | [10] 20.5 µM | [11] 4.14 µM | [12] 16.3 µM | [13] 17.5 µM | [14] 7.08 µM | [15] 17.1 µM | [16] 5.96 µM | [17] 24.2 µM | [18] 2.08 µM | [19] 7.53 µM
